Results on 40 molecules are retold here after US11414384B2, “P300/CBP hat inhibitors” (Constellation Pharmaceuticals, Inc., priority 2018, dated 2022).

SMILES strings stand for the structures. pIC50: −log10 of the molar value. Where only a bound is given, the exact number is not on record here.

Test [1] concerns the target p300 HAT domain (residues 1287-1666) (Homo sapiens (Human), UniProt Q09472). The test can be described thus: p300 HAT SPA assay (scintillation proximity assay, acetylation of biotinylated H3(1-21) peptide). Particulars: p300 HAT domain; average of at least 2 replicate titrations; read-out: P300 HAT SPA IC50. The test is classed as biochemical. The procedure, abridged: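 Scintillation proximity readout of acetylated biotin-H3(1-21) captured on streptavidin plates after 1.5 hr at RT; enzyme was Ni2+/anion-exchange-purified HAT domain in 20 mM Hepes pH 7.5. Inhibitor IC50s calculated from the data.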

The next test concerns the target full length p300 (Homo sapiens (Human), UniProt Q09472). As to the kind of experiment: full length p300 SPA assay. Particulars: average of at least 2 replicate titrations, read-out: FL P300 IC50. Format: biochemical. The protocol:
Reactions were initiated with 12.5 μL 2 μM biotinylated H3(1-21) peptide (New England Peptide) and run for 1 hr at RT, then quenched with 20 μL stop solution (200 mM Tris pH 8.0, 200 mM EDTA, 2M NaCl, 160 μM anacardic acid). 35 μL of the reaction volume was transferred to a 384-well streptavidin FlashPlate (PerkinElmer) using a Bravo liquid handler (Velocity 11) and incubated for 1.5 hr at RT. Plates were aspirated, washed with 95 μL wash buffer (15 mM Tris pH 8.5, 0.069 μM Brij-35), aspirated, sealed, and scintillation counts read on a Topcount (PerkinElmer). Data were analyzed in Genedata to determine inhibitor IC50 values.
The full length p300 SPA assay was run following the same protocol as p300 HAT SPA assay, but used 6 nM purified full length p300 (purchased from Active Motif) in place of the purified p300-HAT domain.

Chain of full length p300 (Q09472 whole entry): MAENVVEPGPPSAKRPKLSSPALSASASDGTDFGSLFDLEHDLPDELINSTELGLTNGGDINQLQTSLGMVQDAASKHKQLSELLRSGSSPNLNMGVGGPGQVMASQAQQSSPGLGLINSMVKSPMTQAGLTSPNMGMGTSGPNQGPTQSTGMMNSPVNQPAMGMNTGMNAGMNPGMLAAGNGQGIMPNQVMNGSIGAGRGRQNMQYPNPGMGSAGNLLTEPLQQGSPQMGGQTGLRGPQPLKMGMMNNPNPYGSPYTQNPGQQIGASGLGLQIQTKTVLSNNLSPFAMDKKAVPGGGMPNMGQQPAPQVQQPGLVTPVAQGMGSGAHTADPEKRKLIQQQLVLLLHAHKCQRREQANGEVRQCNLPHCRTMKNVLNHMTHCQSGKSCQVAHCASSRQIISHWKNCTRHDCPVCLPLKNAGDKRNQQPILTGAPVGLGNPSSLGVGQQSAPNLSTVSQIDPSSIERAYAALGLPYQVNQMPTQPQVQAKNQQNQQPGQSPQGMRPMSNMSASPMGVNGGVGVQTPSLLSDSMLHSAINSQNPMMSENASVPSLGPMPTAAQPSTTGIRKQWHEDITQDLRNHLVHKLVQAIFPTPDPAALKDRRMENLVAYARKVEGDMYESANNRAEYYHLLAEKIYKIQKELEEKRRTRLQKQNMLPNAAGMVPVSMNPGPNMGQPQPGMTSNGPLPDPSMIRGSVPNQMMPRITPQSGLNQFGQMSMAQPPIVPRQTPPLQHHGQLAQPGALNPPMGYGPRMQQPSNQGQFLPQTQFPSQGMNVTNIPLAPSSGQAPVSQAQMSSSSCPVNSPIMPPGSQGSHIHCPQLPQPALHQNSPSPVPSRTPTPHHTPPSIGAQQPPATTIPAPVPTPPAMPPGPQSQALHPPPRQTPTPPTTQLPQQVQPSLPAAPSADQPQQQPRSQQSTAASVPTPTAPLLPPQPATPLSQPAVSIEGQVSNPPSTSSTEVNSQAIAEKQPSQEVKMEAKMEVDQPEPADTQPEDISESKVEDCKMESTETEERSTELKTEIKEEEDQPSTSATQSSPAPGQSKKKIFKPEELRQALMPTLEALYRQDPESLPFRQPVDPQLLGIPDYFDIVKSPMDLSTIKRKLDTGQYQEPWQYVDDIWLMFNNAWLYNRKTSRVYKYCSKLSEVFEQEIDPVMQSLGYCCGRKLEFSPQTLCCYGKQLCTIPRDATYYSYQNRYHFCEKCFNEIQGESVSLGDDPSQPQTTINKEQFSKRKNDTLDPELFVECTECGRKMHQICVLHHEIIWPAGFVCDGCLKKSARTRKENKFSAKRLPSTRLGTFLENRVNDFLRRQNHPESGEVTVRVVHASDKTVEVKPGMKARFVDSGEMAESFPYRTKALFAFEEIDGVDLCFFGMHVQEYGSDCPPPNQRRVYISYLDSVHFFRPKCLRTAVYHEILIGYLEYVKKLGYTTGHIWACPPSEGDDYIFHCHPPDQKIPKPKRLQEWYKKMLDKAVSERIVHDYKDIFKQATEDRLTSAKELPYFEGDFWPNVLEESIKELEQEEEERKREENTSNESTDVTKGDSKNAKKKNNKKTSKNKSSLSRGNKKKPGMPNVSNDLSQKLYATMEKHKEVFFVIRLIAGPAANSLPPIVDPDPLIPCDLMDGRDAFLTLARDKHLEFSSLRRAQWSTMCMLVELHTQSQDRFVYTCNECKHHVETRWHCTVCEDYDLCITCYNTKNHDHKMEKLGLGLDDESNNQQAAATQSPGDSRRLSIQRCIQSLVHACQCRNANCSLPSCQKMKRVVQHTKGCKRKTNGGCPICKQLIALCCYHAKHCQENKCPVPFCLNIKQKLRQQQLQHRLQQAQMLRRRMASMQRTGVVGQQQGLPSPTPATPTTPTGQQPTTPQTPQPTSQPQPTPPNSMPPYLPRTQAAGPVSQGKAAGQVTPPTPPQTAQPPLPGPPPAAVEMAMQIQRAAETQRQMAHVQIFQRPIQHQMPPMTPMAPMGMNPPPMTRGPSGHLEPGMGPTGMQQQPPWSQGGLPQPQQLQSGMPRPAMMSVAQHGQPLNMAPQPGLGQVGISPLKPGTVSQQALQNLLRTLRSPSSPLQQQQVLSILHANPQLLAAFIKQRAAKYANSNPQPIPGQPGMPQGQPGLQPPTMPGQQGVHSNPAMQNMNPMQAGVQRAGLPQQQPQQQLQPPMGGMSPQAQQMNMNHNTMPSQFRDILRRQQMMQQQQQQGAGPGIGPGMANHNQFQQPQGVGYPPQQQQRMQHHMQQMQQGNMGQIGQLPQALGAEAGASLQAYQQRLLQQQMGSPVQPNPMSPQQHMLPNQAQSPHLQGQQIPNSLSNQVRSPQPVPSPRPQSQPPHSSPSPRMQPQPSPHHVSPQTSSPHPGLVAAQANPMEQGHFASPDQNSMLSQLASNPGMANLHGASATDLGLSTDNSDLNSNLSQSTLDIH
Chain of p300 HAT domain (residues 1287-1666) (Q09472 1287-1666): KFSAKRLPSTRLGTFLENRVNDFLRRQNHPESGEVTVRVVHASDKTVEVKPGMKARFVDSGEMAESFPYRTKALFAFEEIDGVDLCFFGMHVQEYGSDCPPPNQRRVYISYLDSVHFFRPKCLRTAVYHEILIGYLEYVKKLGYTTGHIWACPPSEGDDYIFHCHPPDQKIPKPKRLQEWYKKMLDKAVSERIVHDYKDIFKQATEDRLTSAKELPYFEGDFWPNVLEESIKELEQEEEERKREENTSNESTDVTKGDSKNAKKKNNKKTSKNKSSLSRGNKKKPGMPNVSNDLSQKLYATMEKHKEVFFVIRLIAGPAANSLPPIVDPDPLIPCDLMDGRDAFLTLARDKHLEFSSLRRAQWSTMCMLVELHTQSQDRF

As to `N#Cc1ccc(CCNC(C(=O)c2c[nH]c3cc(C(=O)O)ccc23)c2ccccc2)cc1` (single isomer, unassigned) [155 Isomer 2], the negative logarithm of the IC50 (pIC50) – broadly, −log10 of the IC50, conventionally taken in molar units – in test [1] is 5.39; on full length p300 it was 6.55.

With `CN(C)CCNC(=O)c1ccc2c(C(=O)C(NCCc3ccc(Cl)cc3Cl)c3ccccc3)c[nH]c2c1` (single isomer, unassigned) [153 Isomer 2], the results for the pIC50 (in test [1]; on full length p300) were 7.10 and 8.24, respectively.

Regarding `COc1ccc(CCNC(C(=O)c2c[nH]c3ccccc23)c2ccccc2)cc1` (single isomer, unassigned) [8 Isomer 2], the pIC50 is 6.06 in test [1] and 7.56 on full length p300.

On to `NS(=O)(=O)c1ccc(CCNC(C(=O)c2c[nH]c3cc(Cl)ccc23)c2ccccc2)cc1` (single isomer, unassigned) [13 Isomer 2], for which the negative-log IC50 (pIC50) in test [1] was 5.79; on full length p300 it was 6.84.

In the case of `O=C(c1c[nH]c2ccccc12)C(NCCc1ccccn1)c1ccccc1` (single isomer, unassigned) [9 Isomer 1], the negative-log IC50 (pIC50) in test [1] was less than 4.22; on full length p300 it was 4.59.

Consider `O=C(c1cnc2ccccn12)C(NCCc1ccc(Cl)cc1)c1ccccc1` (single isomer, unassigned) [46 Isomer 1], for which the values for the pIC50 (in test [1]; on full length p300) were 5.05 and 4.88, respectively.

`NS(=O)(=O)c1ccc(CCNC(C(=O)c2c[nH]c3ccncc23)c2ccccc2)cc1` (racemic) [Example 31, (rac)-4-(2-((2-oxo-1-phenyl-2-(1H-pyrrolo[3,2-c]pyridin-3-yl)ethyl)amino)ethyl) benzenesulfonamide]: the negative logarithm of the IC50 (pIC50) in test [1] was 4.47; at full length p300 it was 4.97.

`NS(=O)(=O)c1ccc(CCNC(C(=O)c2c[nH]c3ncccc23)c2ccccc2)cc1` (single isomer, unassigned) [33 Isomer 2]: the figures for the negative logarithm of the IC50 (pIC50) (in test [1]; at full length p300) were 5.00 and 6.26, respectively.

Consider `O=C(c1c[nH]c2ccccc12)C(NCCc1ccc(Cl)cc1)c1ccccn1` (racemic) [42 Racemic, (rac)-2-((4-chlorophenethyl)amino)-1-(1H-indol-3-yl)-2-(pyridin-2-yl)ethan-1-one], for which the pIC50 in test [1] is 5.04; on full length p300 it was 6.71.

As for `N#Cc1ccc(CCNC(C(=O)c2c[nH]c3cc(C(=O)NCCN4CCCC4=O)ccc23)c2ccccc2)cc1` (single isomer, unassigned) [164 Isomer 2], the values for the negative-log IC50 (pIC50) (in test [1]; on full length p300) were 6.85 and 8.22, respectively.

With `CNC(=O)c1ccc2c(C(=O)C(NCCc3ccc(C#N)cc3)c3ccccc3)c[nH]c2c1` (single isomer, unassigned) [156 Isomer 1], the pIC50 in test [1] was 6.23; on full length p300, 7.54.

For `COCCNC(=O)c1cccc2c(C(=O)C(NCCc3ccc(Cl)cc3Cl)c3ccccc3)c[nH]c12` (single isomer, unassigned) [150 Isomer 1], the negative logarithm of the IC50 (pIC50) is 5.10 in test [1] and 6.41 on full length p300.

As for `CN(C)CCNC(=O)c1ccc2c(C(=O)C(NCCc3ccc(Cl)cc3Cl)c3ccccc3)c[nH]c2c1` (single isomer, unassigned) [153 Isomer 1], the pIC50 in test [1] is 6.46; at full length p300, 8.11.

With `O=C(c1c[nH]c2ccccc12)C(NCCc1ccncc1)c1ccccc1` (single isomer, unassigned) [11 Isomer 1], the pIC50 was 5.00 in test [1] and 6.69 at full length p300.

On to `COc1cccc(CCNC(C(=O)c2c[nH]c3ccccc23)c2ccccc2)c1` (single isomer, unassigned) [7 Isomer 2], for which the pIC50 in test [1] is 5.29; at full length p300, 6.57.

With `N#Cc1ccc(CCNC(C(=O)c2c[nH]c3cc(C(=O)NCCN4CCCC4=O)ccc23)c2ccccc2)cc1` (single isomer, unassigned) [164 Isomer 1], the pIC50 in test [1] is 5.44; at full length p300, 6.72.

`CN(C)C(=O)c1ccc(CCNC(C(=O)c2c[nH]c3ccccc23)c2ccccc2)cc1` (single isomer, unassigned) [135 Isomer 2]: the pIC50 was 4.54 in test [1] and 6.09 at full length p300.

Turning to `NS(=O)(=O)c1ccc(CCNC(C(=O)c2c[nH]c3cccnc23)c2ccccc2)cc1` (racemic) [Example 30, (rac)-4-(2-((2-oxo-1-phenyl-2-(1H-pyrrolo[3,2-b]pyridin-3-yl)ethyl)amino)ethyl) benzenesulfonamide], the figures for the negative-log IC50 (pIC50) (in test [1]; on full length p300) were 4.49 and 6.14, respectively.

As for `O=C(c1n[nH]c2ccccc12)C(NCCc1ccc(Cl)cc1)c1ccccc1` (single isomer, unassigned) [47 Isomer 2], the pIC50 is 4.69 in test [1] and 5.89 on full length p300.

Turning to `COCCNC(=O)c1ccc2c(C(=O)C(NCCc3ccc(Cl)cc3Cl)c3ccccc3)c[nH]c2c1` (single isomer, unassigned) [154 Isomer 2], the negative logarithm of the IC50 (pIC50) in test [1] was 5.79; at full length p300, 8.05.

For the molecule `O=C(c1c[nH]c2ccccc12)C(NCCc1cccnc1)c1ccccc1` (single isomer, unassigned) [10 Isomer 1], the negative logarithm of the IC50 (pIC50) is 4.67 in test [1] and 6.20 at full length p300.

As for `NS(=O)(=O)c1ccc(CCNC(C(=O)c2c[nH]c3ccc(Cl)cc23)c2ccccc2)cc1` (single isomer, unassigned) [14 Isomer 1], the pIC50 was less than 4.22 in test [1] and 5.02 at full length p300.

For the molecule `O=C(c1c[nH]c2cc(-c3ccccn3)ccc12)C(NCCc1ccc(F)cc1)c1ccccc1` (single isomer, unassigned) [105 Isomer 2], the negative-log IC50 (pIC50) in test [1] was 5.86; on full length p300, 7.60.

On to `COc1ccc(CCNC(C(=O)c2c[nH]c3c(CCC(=O)N(C)C)cccc23)c2ccccc2)cc1` (single isomer, unassigned) [29 Isomer 2], for which the values for the pIC50 (in test [1]; on full length p300) were 5.18 and 6.66, respectively.

Consider `NS(=O)(=O)c1ccc(CCNC(C(=O)c2c[nH]c3ncccc23)c2ccccc2)cc1` (single isomer, unassigned) [33 Isomer 1], for which the pIC50 in test [1] is less than 4.22; at full length p300, 5.76.

Turning to `O=C(c1n[nH]c2ccccc12)C(NCCc1ccc(Cl)cc1)c1ccccc1` (single isomer, unassigned) [47 Isomer 1], the negative-log IC50 (pIC50) is 5.32 in test [1] and 5.88 on full length p300.

Consider `CN(C)CCNC(=O)c1cccc2c(C(=O)C(NCCc3ccc(Cl)cc3Cl)c3ccccc3)c[nH]c12` (single isomer, unassigned) [149 Isomer 1], for which the negative-log IC50 (pIC50) is 5.23 in test [1] and 6.65 at full length p300.

On to `NS(=O)(=O)c1ccc(CCNC(C(=O)c2c[nH]c3cccc(Cl)c23)c2ccccc2)cc1` (single isomer, unassigned) [12 Isomer 2], for which the figures for the pIC50 (in test [1]; on full length p300) were less than 4.22 and 5.40, respectively.

Take `NS(=O)(=O)c1ccc(CCNC(C(=O)c2c[nH]c3cc(Cl)ccc23)c2ccccc2)cc1` (single isomer, unassigned) [13 Isomer 1]: the negative logarithm of the IC50 (pIC50) was 4.74 in test [1] and 6.33 at full length p300.

Take `O=C(c1c[nH]c2ccccc12)C(NCCc1ccncc1)c1ccccc1` (single isomer, unassigned) [11 Isomer 2]: the negative-log IC50 (pIC50) in test [1] was 5.15; at full length p300 it was 6.71.

Turning to `NS(=O)(=O)c1ccc(CCNC(C(=O)c2c[nH]c3cnccc23)c2ccccc2)cc1` (single isomer, unassigned) [32 Isomer 2], the negative-log IC50 (pIC50) in test [1] was 4.89; on full length p300, 6.13.

`NS(=O)(=O)c1ccc(CCNC(C(=O)c2c[nH]c3ccc(Cl)cc23)c2ccccc2)cc1` (single isomer, unassigned) [14 Isomer 2]: the pIC50 in test [1] is 4.32; at full length p300 it was 5.73.

On to `Cc1nc(C(=O)C(NCCc2ccc(Cl)cc2)c2ccccc2)c2ccccn12` (single isomer, unassigned) [45 Isomer 2], for which the negative logarithm of the IC50 (pIC50) in test [1] was 4.40; at full length p300, 5.87.

In the case of `CNC(=O)Cc1ccc2c(C(=O)C(NCCc3ccc(C#N)cc3)c3ccccc3)c[nH]c2c1` (single isomer, unassigned) [62 Isomer 1], the pIC50 in test [1] was 6.30; on full length p300, 7.43.

Take `COc1ccc(CCN[C@H](C(=O)c2c[nH]c3c(C(C)C)cccc23)c2ccccc2)cc1` (single isomer, unassigned) [145 Isomer 1]: the pIC50 in test [1] is 4.73; on full length p300 it was 6.23.

As for `CNC(=O)c1cccc2c(C(=O)C(NCCc3ccc(Cl)cc3Cl)c3ccccc3)c[nH]c12` (single isomer, unassigned) [147 Isomer 2], the pIC50 in test [1] is 5.31; on full length p300, 6.47.

On to `O=C(c1c[nH]c2ccccc12)C(NCCc1cccnc1)c1ccccc1` (single isomer, unassigned) [10 Isomer 2], for which the pIC50 in test [1] was 4.72; on full length p300, 6.15.

As for `O=C(c1c[nH]c2ccccc12)C(NCCc1ccccn1)c1ccccc1` (single isomer, unassigned) [9 Isomer 2], the pIC50 is 4.48 in test [1] and 6.14 at full length p300.

In the case of `O=C(c1c[nH]c2ccccc12)C(NCCc1ccc(Cl)cc1)c1ccncc1` (racemic) [44 Racemic, (rac)-2-((4-chlorophenethyl)amino)-1-(1H-indol-3-yl)-2-(pyridin-4-yl)ethan-1-one], the negative logarithm of the IC50 (pIC50) is 5.48 in test [1] and 6.92 on full length p300.

Regarding `COc1ccccc1CCNC(C(=O)c1c[nH]c2ccccc12)c1ccccc1` (single isomer, unassigned) [6 Isomer 2], the pIC50 was 5.74 in test [1] and 7.09 at full length p300.
